The subject of one series is Bcl-2. Briefly: Western blot of Bcl-2 in Skmel-28 melanoma cells treated with CoQ10 building block components. In kind it is cell-based. How it is done:
(§1) Skmel-28 melanoma cells were cultured in DMEM/F12 supplemented with 5% Fetal Bovine Serum (FBS) and 1× final concentration of Antibiotics. The cells were grown to 85% confluency and treated with building block components for 3, 6, 12 and 24 hours. The cells were then pelleted and a Western blot analysis was performed.
(§2) In the Western Blot Analysis, the cells were pelleted in cold PBS, lysed, and the protein levels were quantified using a BCA protein assay. The whole cell lysate was loaded in a 4% loading 12% running Tris-HCl gel. The proteins were then transferred to a nitrocellulose paper then blocked with a 5% milk Tris-buffered solution for 1 hour. The proteins were then exposed to primary antibodies (Bcl-2 and Caspase-3) overnight. The nitrocellulose paper was then exposed to Pico Chemilluminescent for 5 min and the protein expression was recorded. After exposure, actin was quantified using the same method. Using ImageJ the levels of protein expression were quantified. A t-Test was used to analyze for statistical significance.

A further series has as its system Caspase-3. Briefly: Western blot of Caspase-3 in Skmel-28 melanoma cells treated with CoQ10 building block components. The class given is cell-based. Particulars: for Caspase-3 expression / apoptotic effect: all concentrations and time points tested. On the procedure:
as §1, §2

A further series concerns Melanoma cells. Briefly: Cell proliferation assay (live cell count) of building block combinations. The class given is cell-based. On the procedure:
Cell Proliferation Assay of the Combination of 4-Hydroxy-Benzoate with Benzoquinone: This set of experiments used a cell proliferation assay to assess the effect of combining different building block molecules on cell proliferation.
The first study examined the effect of combining 4-Hydroxy-Benzoate with Benzoquinone. Cells were incubated for 48 hours, after which a cell count was performed for the live cells. Each test group was compared to the control, and each combination groups were compared to Benzoquinone control. The compounds were statistically analyzed for the addition of Benzoquinone.
Additional studies were performed testing additional molar ratios. For the first test 4-Hydroxybenzoic were tested at concentrations of 500 nM, 1 μM, and 50 μM. These concentrations were tested in combination with 2,3-Dimethoxy-5-methyl-p-benzoquinone (Benzo). The concentration of Benzo tested were 25 μM, 50 μM, and 100 μM. Melanoma cells were grown to 80% confluency and seeded in 6 well plates at a concentration of 40K cells per well. The cells were treated with CoQ10, 4-Hydroxybenzoate, Benzo, and a combination of 4-Hydroxybenzoate/Benzo.
A T-test was performed with p<0.05 as statistically significant.

The test system of series [1] is neonatal fibroblast cells. The series can be described thus: Cell proliferation assay (coulter counter). The class given is cell-based. Conditions: HB 500 nM, 5 μM, 25 μM alone and with benzoquinone 25, 50, 100 μM; 24 hours.
Description: A cell proliferation assay was also performed on neonatal fibroblast cells. The concentrations of HB tested were 500 nM, 5 μM, and 25 μM. HB was also tested in combination with benzoquinone at a concentrations of 25 μM, 50 μM, and 100 μM. […] The cells were trypsinized and quantified using a coulter counter.
For a further series, the system named is HDFa cells. Briefly: SeaHorse XF analyzer OCR and ECAR. In kind it is cell-based, human. The source says: Environmental influencers (e.g., MIMs or Epi-shifters) may also be identified by changes in cellular energetics. One example of the measurement of cellular energetics are the real-time measures of the consumption of molecular oxygen and/or the change in pH of the media of a cell culture. For example, the ability of a potential epi-shifter to modulate the metabolic state of a cell may be analyzed using, for example, the XF24 Analyzer (Seahorse, Inc.). This technology allows for real time detection of oxygen and pH changes in a monolayer of cells in order to evaluate the bioenergetics of a cell microenvironment. The XF24 Analyzer measures and compares the rates of oxygen consumption (OCR), which is a measure of aerobic metabolism, and extracellular acidification (ECAR), which is a measure of glycolysis, both key indicators of cellular energetics.
(SeaHorse Biosciences Inc, North Billerica, Mass.).
In this experiment, the OCR and extracellular acidification rate (ECAR) in normal cells lines were obtained in the presence and absence of CoQ10 to determine baseline values. It was observed that in its native nutrient environment, the basal OCR rates in normal cells lines are different, and are usually a function of the physiological roles of the cells in the body.
For example, one set of experiments were conducted using the non-cancerous cell line HDFa, which is a human adult dermal fibroblast cell line. Fibroblasts are cells that primarily synthesize and secrete extracellular matrix (ECM) components and collagen that form the structural framework (stroma) for tissues. In addition, fibroblasts are known to serve as tissue ambassadors of numerous functions such as wound healing and localized immnomodulation. Under normal physiological conditions, energy requirements in normal fibroblasts are met using a combination of glycolysis and oxidative phosphorylation—the glycolysis providing the necessary nutrients for synthesis of ECM.
FIGS. 29 and 30 describe the OCR in HDFa and HASMC cells grown in physiologically normal glucose (about 4.6 mM) and high glucose (hyperglycemic) conditions.

For another series, the system named is tumor cells. Conditions: cited from earlier work.
Setting [2] is: all concentrations and time points tested.
The mark [3] stands for this setting: 24 hours, concentration not given.

With `COc1cc(C(O)C(=O)O)ccc1O` (centres unmarked) [3-methoxy-4-hydroxymandelate], the Bcl-2 expression entry with Bcl-2 (setting [2]) was “downward trend”. Besides, the “Caspase-3 expression / apoptotic effect” value with Caspase-3 is given as “no statistically significant apoptotic effect”.
In the case of `CC(=O)SCCNC(=O)CCNC(=O)[C@H](O)C(C)(C)COP(=O)(O)OP(=O)(O)OC[C@H]1O[C@@H](n2cnc3c(N)ncnc32)[C@H](O)[C@@H]1OP(=O)(O)O` [Acetyl-CoA], in the series with Bcl-2 (setting [2]), the Bcl-2 expression entry was “no significant observed reduction”. Also, in the series on Caspase-3, the “Caspase-3 expression / apoptotic effect” value is given as “no significant observed reduction in Bcl-2 or increase in Caspase-3 expression”.
`N[C@H](Cc1ccccc1)C(=O)O` [D-Phenylalanine]: the Bcl-2 expression entry in the series on Bcl-2 (5 μM, 3 hours) was “significant reduction”; with Bcl-2 (5 μM, 6 hours), “significant reduction”; in the series on Bcl-2 (25 μM, 3 hours), “significant reduction”; in the series on Bcl-2 (25 μM, 6 hours) it was “significant reduction”; in the series with Bcl-2 (100 μM, 6 hours), “significant reduction”. Besides, the Caspase-3 expression result in the series with Caspase-3 (5 μM, 6 hours) is reported as “significant increase”; with Caspase-3 (100 μM, 6 hours) it was “significant increase”.
As for `CC(=O)NCC(=O)O` [Acetylglycine], the Bcl-2 expression result in the series on Bcl-2 (5 μM, 12 hours) is on record as “significant decrease”; with Bcl-2 (25 μM, 12 hours) it was “significant decrease”; with Bcl-2 (100 μM, 24 hours), “significant decrease”.
As for `Cc1ncc(CO)c(CO)c1O` [Pyridoxine], the Bcl-2 expression result with Bcl-2 (setting [3]) is listed as “significant reduction”.
`N[C@H](Cc1ccc(O)cc1)C(=O)O` [D-Tyrosine]: the Bcl-2 expression entry is given as “reduction” in the series with Bcl-2 (5 μM, 12 hours); “reduction” in the series on Bcl-2 (5 μM, 24 hours); “reduction” with Bcl-2 (15 μM, 12 hours); “reduction” in the series with Bcl-2 (15 μM, 24 hours). The Caspase-3 expression result was “increase” in the series on Caspase-3 (1 μM, 12 hours); “increase” in the series with Caspase-3 (1 μM, 24 hours); “significantly increased” with Caspase-3 (5 μM, 3 hours); “significantly increased” in the series with Caspase-3 (5 μM, 12 hours); “significantly increased” in the series with Caspase-3 (5 μM, 24 hours).
Consider `N[C@@H](Cc1ccc(O)cc1)C(=O)O` [L-Tyrosine], for which the Bcl-2 expression result with Bcl-2 (500 μM, 24 hours) was “statistically significant decrease”.
Regarding `O=C(O)c1ccc(O)cc1` [4-Hydroxybenzoate], in the series with Melanoma cells (48 hours incubation), the “cell number vs control” value is given as “significant decrease in cell number”. In the series with Melanoma cells (additional molar ratios, HB 500 nM, 1 μM, 50 μM), the “cell proliferation vs control” value is “significant decrease in cell proliferation”. For the same compound, in series [1], the “reduction in fibroblast cells” value was “did not show a significant reduction”.
For `COc1cc(C(=O)O)ccc1O` [Vanillic acid], the Bcl-2 expression result with Bcl-2 (500 nM, 24 hours) was “significantly reduce”; in the series on Bcl-2 (5 μM, 24 hours) it was “significantly reduce”.
Turning to `O=C(O)C(=O)Cc1ccc(O)cc1` [4-Hydroxy-phenylpyruvate], the Bcl-2 expression result was “significant reduction” in the series on Bcl-2 (5 μM, 24 hours) and “significant reduction” with Bcl-2 (15 μM, 24 hours). For the same compound, the Caspase-3 expression result in the series with Caspase-3 (5 μM, 12 hours) is given as “significant increase”; with Caspase-3 (15 μM, 12 hours) it was “significant increase”.
In the case of `COC1=C(OC)C(=O)C(C/C=C(\C)CC/C=C(\C)CC/C=C(\C)CC/C=C(\C)CC/C=C(\C)CC/C=C(\C)CC/C=C(\C)CC/C=C(\C)CC/C=C(\C)CCC=C(C)C)=C(C)C1=O` [compound 31510], the ECAR was determined as 5 mpH/min with HDFa cells (Hypoxia (5.5 mM), 50 μM); 5 mpH/min with HDFa cells (Hypoxia (5.5 mM), 100 μM); 6 mpH/min in the series with HDFa cells (Hypoxia (22 mM), 50 μM); 8 mpH/min in the series on HDFa cells (Hypoxia (22 mM), 100 μM); 6 mpH/min with HDFa cells (Normoxia (5.5 mM), 50 μM); 6 mpH/min in the series on HDFa cells (Normoxia (5.5 mM), 100 μM). Also, the ECAR is 5 mpH/min in the series on HDFa cells (Normoxia (22 mM), 50 μM) and 5 mpH/min in the series on HDFa cells (Normoxia (22 mM), 100 μM).
As for `N[C@@H](Cc1ccccc1)C(=O)O` [L-Phenylalanine], the Bcl-2 expression entry with Bcl-2 (100 μM, 3 hours) is given as “statistically significant decrease”; in the series with Bcl-2 (100 μM, 12 hours) it was “statistically significant decrease”.
In the case of `C[C@@](O)(CCO)CC(=O)O` [Mevalonic Acid], the Bcl-2 expression result in the series with Bcl-2 (setting [2]) is on record as “no significant reduction”. Also, in the series with Caspase-3, the “Caspase-3 expression / apoptotic effect” value is reported as “no significant reduction in Bcl-2 expression or an increase in Caspase-3 expression”.
For `NC(Cc1ccccc1)C(=O)O` (racemic) [DL-Phenylalanine], the Bcl-2 expression result in the series with Bcl-2 (setting [3]) is given as “statistically significant decrease”. For the same compound, the Caspase-3 expression result with Caspase-3 (3 hours, concentration not given) is “statistically significant increase”.
Consider `NC(Cc1ccc(O)cc1)C(=O)O` (racemic) [DL-Tyrosine], for which the Bcl-2 expression entry in the series with Bcl-2 (1 μM, 12 hours) is reported as “statistical decrease”; in the series on Bcl-2 (5 μM, 24 hours), “statistical decrease”; with Bcl-2 (15 μM, 12 hours) it was “statistical decrease”. In addition, the Caspase-3 expression result is “increase” in the series on Caspase-3 (5 μM, 12 hours) and “increase” in the series on Caspase-3 (15 μM, 12 hours).
In the case of `CC(C)(CO)[C@@H](O)C(=O)NCCCO` [Panthenol], the Bcl-2 expression entry with Bcl-2 (25 μM, time not stated) is “significant reduction”.
Consider `C=C1/C(=C\C=C2/CCC[C@]3(C)[C@@H]([C@H](C)CCCC(C)(C)O)CC[C@@H]23)C[C@@H](O)C[C@@H]1O` [Vitamin D3, 1α, 25-dihydroxyvitamin D3], for which, in the series with tumor cells (Deeb et al. 2007), the “expression of anti-apoptotic proteins BCL2 and BCL-XL” value is “repressing the expression”; the “expression of pro-apoptotic proteins (BAX, BAK, BAD)” value is listed as “inducing the expression”; the “gene transcription of p21WAFI/CIPI” value is listed as “induce gene transcription”. In the series on tumor cells (Masuda and Jones 2006), the “expression of VEGF” value is recorded as “inhibit the expression” and the “proliferation of tumor-derived endothelial cells” value is listed as “inhibit the proliferation”.

The record behind these values is patent US20210002725A1, “METHODS FOR THE DIAGNOSIS OF METABOLIC DISORDERS USING EPIMETABOLIC SHIFTERS, MULTIDIMENSIONAL INTRACELLULAR MOLECULES, OR ENVIRONMENTAL INFLUENCES” (Berg LLC, priority 2009, published 2021).
